Common to all, as to assay type: physicochemical
Series [1] is described as follows: Aged retention of fragrance components in powder detergent, GC/MS. Particulars: 1 month, 37° C., 70% relative humidity; for Retention With coating: composition as Example 1 with coating in detergent base; for Retention Without coating: composition as Example 1 without coating in detergent base; for Retention free perfume: free perfume in detergent base, 0.35 wt %. The protocol:
Compositions were prepared substantially as set out in Example 1 wherein one composition was provided with a coating and the other not.
Compositions were incorporated into standard, unperfumed detergent bases resulting in 130.00 g perfumed powder detergent with a perfume level of 0.35 wt % based on total powder detergent. As a reference, 0.46 g of free perfume was incorporated into 129.54 g of the same standard detergent base. Both samples and reference were filled separately into carton boxes, sealed and stored in a climate chamber at 70% relative humidity and 37° C. for 1 month. All samples were compared in terms of aged fragrance material profile measured by GC/MS analysis.

The nature of series [2]: Loss Factor (vapour pressure x water solubility at room temperature). The text has this: Preferred components of a fragrance material for addition to the outer matrix are substances that have a Loss Factor (FL) that is lower than 10^2 Pa ppm. The term <<Loss Factor>> refers to a parameter that is related to the losses of fragrance material during drying and is defined as the product of the pure component vapour pressure (Pa) and the water solubility (ppm) at room temperature. Vapour pressures and water solubility data for commercially available fragrance components are well known and so the Loss Factor for a given fragrance component may be easily calculated. Alternatively, vapour pressure and water solubility measurements may be easily taken using techniques well known in the art. […] The water solubility of fragrances may be measured according to techniques known in the art for the measurement of sparingly water-soluble materials. A preferred technique involves the formation of a saturated solution of a fragrance component in water. A tube with a dialysed membrane is placed in the solution such that after equilibration an idealised solution is formed within the tube. The tube may be removed and the water solution therein extracted with a suitable organic solvent to remove the fragrance component. Finally the extracted fragrance component may be concentrated and measured, for example using gas chromatography.

Series [3] can be described thus: Retention of fragrance material components after granulation by GC/MS. To be noted: for Divided. Initial Retention: fragrance divided between core particles and outer matrix (Example 2.2); for Undivided. Initial Retention: whole fragrance in outer matrix (Example 2.1). The text has this: In this example, fragrance material components are divided between core particles and outer matrix. The selection is made such that fragrance components having a loss factor of FL>10^2 Pa ppm are present in core particles whereas the components having a loss factor of FL<10^2 Pa ppm are present in the outer matrix. Such a composition is then compared with a composition wherein total fragrance material is provided in an outer matrix, the core particles being fragrance material-free. […] The retention of certain fragrance material components after the granulation process was measured by GC/MS analysis.

Where [4] appears, read: vapour pressure (Pa) x water solubility (ppm), room temperature.

Each structure is given as a SMILES string. Like-named read-outs stand apart in the source and are kept apart here.

Take `CC(=O)/C(C)=C/C1C(C)=CCCC1(C)C` (centres unmarked) [Gamma methyl ionone]: in series [1], the “Retention With coating” value came out at 91%, the “Retention Without coating” value amounted to 51% and the Retention free perfume is listed as 49%.
Regarding `CC(C=O)Cc1ccc(C(C)(C)C)cc1` (centres unmarked) [Lilial], in series [1], the “Retention With coating” value is 65%, the “Retention Without coating” value is 36% and the Retention free perfume is on record as 4%.
Turning to `C=CC(C)(CCC=C(C)C)OC(C)=O` (centres unmarked) [Linalyl acetate], in series [1], the “Retention With coating” value is on record as 80%, the “Retention Without coating” value is 39% and the Retention free perfume was determined as 8%.
Regarding `C=C(C)[C@H]1CC=C(C)CC1` [Limonene], in series [1], the “Retention With coating” value came to 41%, the “Retention Without coating” value is on record as 18% and the Retention free perfume came out at 0%.
As for `OCCc1ccccc1` [Phenyl ethyl alcohol], in series [1], the “Retention With coating” value was 72%, the “Retention Without coating” value is on record as 36% and the Retention free perfume is given as 25%.
In the case of `O=C(OC1CCCCC1)c1ccccc1O` [Cyclohexyl salicylate], the “Loss Factor FL” value in series [2] (setting [4]) stood at 1.37 Pa ppm. In addition, in series [3], the “Divided. Initial Retention” value was found to be 94% and the “Undivided. Initial Retention” value is on record as 91%.
`CCC(C)(O)CCCC(C)C` (centres unmarked) [Tetrahydro linalool]: the “Loss Factor FL” value in series [2] (setting [4]) turned out to be 3466 Pa ppm. Further, in series [3], the “Divided. Initial Retention” value was found to be 97% and the “Undivided. Initial Retention” value amounted to 47%. Besides, in series [1], the “Retention With coating” value came out at 84%, the “Retention Without coating” value worked out at 50% and the Retention free perfume stood at 33%.
Take `CC(=O)CCC1=C(C)CCCC1(C)C` [Dihydro beta ionone]: in series [2], the “Loss Factor FL” value was 84 Pa ppm. In series [3], the “Divided. Initial Retention” value came out at 84% and the “Undivided. Initial Retention” value amounted to 56%.
As to `CC(=O)OCc1ccccc1` [Benzyl acetate], in series [1], the “Retention With coating” value worked out at 50%, the “Retention Without coating” value is recorded as 26% and the Retention free perfume was determined as 0%.
Take `CC(C)=CCCC(C)CCO` (centres unmarked) [Citronellol]: the “Loss Factor FL” value in series [2] (setting [4]) came out at 761 Pa ppm. Further, in series [3], the “Divided. Initial Retention” value is 100% and the “Undivided. Initial Retention” value is listed as 53%. Also, in series [1], the “Retention With coating” value is 71%, the “Retention Without coating” value is recorded as 18% and the Retention free perfume was 26%.
For the molecule `O=C(OCc1ccccc1)c1ccccc1` [Benzyl benzoate], in series [3], the “Divided. Initial Retention” value came out at 88% and the “Undivided. Initial Retention” value came out at 99%.
`CC(=O)/C=C/C1=C(C)CCCC1(C)C` [Beta ionone]: the “Loss Factor FL” value in series [2] (setting [4]) is 90 Pa ppm. Also, in series [3], the “Divided. Initial Retention” value was found to be 100% and the “Undivided. Initial Retention” value is recorded as 75%.
Consider `CCCCCCOC(=O)c1ccccc1O` [Hexyl salicylate], for which, in series [1], the “Retention With coating” value is 94%, the “Retention Without coating” value was 47% and the Retention free perfume stood at 18%.
For the molecule `CCCCCCCCCC=O` [Aldehyde C10], the “Loss Factor FL” value in series [2] is on record as 424 Pa ppm. Moreover, in series [3], the “Divided. Initial Retention” value was determined as 93% and the “Undivided. Initial Retention” value amounted to 44%.

Source of the values: patent US7166567B2, “Fragrance compositions” (Givaudan SA, priority 2000, dated 2007).
